How the values were obtained:
[1] = target: T1, PEDV Mpro (main protease, 3CL protease) (Porcine epidemic diarrhea virus CV777, UniProt P0C6Y4); assay: surface plasmon resonance (OpenSPR), Mpro immobilised; type: binding; conditions: read-out: KD (affinity constant)
T1 construct: gene rep; mature nsp5 main protease cut from replicase polyprotein 1a/1ab; recombinant N-terminal GST fusion, GST tag removed with PreScission protease; expression as in Li et al., 2020; PDB 4XFQ only for docking
T1 sequence (P0C6Y4 2998-3299 limits assumed): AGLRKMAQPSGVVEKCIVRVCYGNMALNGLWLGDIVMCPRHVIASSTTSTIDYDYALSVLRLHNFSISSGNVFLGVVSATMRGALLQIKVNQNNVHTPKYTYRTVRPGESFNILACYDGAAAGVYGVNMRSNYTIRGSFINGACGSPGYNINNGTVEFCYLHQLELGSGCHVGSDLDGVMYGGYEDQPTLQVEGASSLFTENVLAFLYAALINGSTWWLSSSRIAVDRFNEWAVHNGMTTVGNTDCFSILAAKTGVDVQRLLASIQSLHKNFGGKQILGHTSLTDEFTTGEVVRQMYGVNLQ

[2] = target: T1, PEDV Mpro (main protease, 3CL protease); assay: FRET inhibition assay; type: biochemical

How did the Kd [1] turn out when `COc1c(O)cc(O)c2c(=O)cc(-c3ccccc3)oc12` [wogonin] was run?
The Kd was 16 µM.

And the IC50 [2]?
The IC50 was 19.4 µM.

Source: article PMC10050881
